# According to patent publication US6503449B1, “Process for the control of microbial contamination in water-based solids suspensions” (Ciba Specialty Chemicals Corporation, priority 1998, dated 2003):
# Tested on: Pseudomonas putida
# Assay: Sonication (20 kHz horn probe) of Pigment Red 23 dispersion with biocide, streaking on Nutrient Agar plates
# Format: cell-based
# Parameters: key: −: no bacterial colonies detected; +: light contamination (10^0 and 10^3 cfu/ml); ++: moderate contamination(10^3-10^5 cfu/ml); +++: heavy contamination(>10^5 cfu/ml)
# From the text: A mixture of Pigment Red 23, available from Ciba Specialty Chemicals(UK) Ltd., 215.5 parts, Emulan OG (RTM) (35% solution in water), available from BASF, 153.7 parts, tributyl phosphate, available from Albright & Wilson, 2 parts, and water, 128.8 parts, are dispersed by re-circulation through a Bachofen KDL200 bead-mill until colouristic properties are within specification of UNISPERSE (RTM) Red RBS-PI, available from Ciba Specialty Chemicals(UK) Ltd., and adjusted to pH 8.0-8.5 with 20% sodium hydroxide solution. This material is identified as containing the Gram negative bacterium, Pseudomonas putida. 50 millilitre aliquots of this dispersion containing levels of glutaraldehyde (pentane-1,5-dialdehyde), available as the trade product Protectol GDA form BASF or Ucarcide from Union Carbide, between 0 parts per million (ppm) and 2000 ppm are sonicated using a Branson MSE sonicator with a 19 mm horn probe resonating at 20 kHz with an amplitude of 6 microns. Sonication is undertaken in a 100 millilitre glass beaker, diameter 38 mm, with magnetic flea agitator and cooled in a water/ice bath to maintain temperature at 28-32° C. Bacterial growth in each sample is assessed at 5 minute intervals by streaking each dispersion on to Nutrient Agar(NA) plates and incubating the plates for a minimum of 48 hours at 30° C. The plates are then examined for bacterial colonies and expressed according to the following notation:
# The resistance of the pigment dispersion produced according to the process of the invention to further bacterial growth is recorded by continued observation of the samples of Table 1 over a period of up to 90 days. […]
smiles,measurement,setting,value
"O=CCCCC=O [glutaraldehyde, pentane-1,5-dialdehyde]","further bacterial growth, samples of Table 1","10 ppm, Time 1 (days) after sonication",−
same,"further bacterial growth, samples of Table 1","10 ppm, Time 2 (days) after sonication",−
same,"further bacterial growth, samples of Table 1","10 ppm, Time 3 (days) after sonication",−
same,"further bacterial growth, samples of Table 1","10 ppm, Time 7 (days) after sonication",−
same,"further bacterial growth, samples of Table 1","10 ppm, Time 14 (days) after sonication",−
same,"further bacterial growth, samples of Table 1","10 ppm, Time 28 (days) after sonication",−
same,"further bacterial growth, samples of Table 1","10 ppm, Time 90 (days) after sonication",−
same,bacterial colonies on Nutrient Agar,"10 ppm, sonicated 0 mins.",+++ (heavy contamination(>10^5 cfu/ml))
same,bacterial colonies on Nutrient Agar,"10 ppm, sonicated 5 mins.",+++ (heavy contamination(>10^5 cfu/ml))
same,bacterial colonies on Nutrient Agar,"10 ppm, sonicated 10 mins.",+++ (heavy contamination(>10^5 cfu/ml))
same,bacterial colonies on Nutrient Agar,"10 ppm, sonicated 15 mins.",++ (moderate contamination(10^3-10^5 cfu/ml))
same,bacterial colonies on Nutrient Agar,"10 ppm, sonicated 20 mins.",+ (light contamination (10^0 and 10^3 cfu/ml))
same,bacterial colonies on Nutrient Agar,"10 ppm, sonicated 25 mins.",+ (light contamination (10^0 and 10^3 cfu/ml))
same,bacterial colonies on Nutrient Agar,"10 ppm, sonicated 30 mins.",−
same,"further bacterial growth, samples of Table 1","25 ppm, Time 1 (days) after sonication",−
same,"further bacterial growth, samples of Table 1","25 ppm, Time 2 (days) after sonication",−
same,"further bacterial growth, samples of Table 1","25 ppm, Time 3 (days) after sonication",−
same,"further bacterial growth, samples of Table 1","25 ppm, Time 7 (days) after sonication",−
same,"further bacterial growth, samples of Table 1","25 ppm, Time 14 (days) after sonication",−
same,"further bacterial growth, samples of Table 1","25 ppm, Time 28 (days) after sonication",−
same,"further bacterial growth, samples of Table 1","25 ppm, Time 90 (days) after sonication",−
same,bacterial colonies on Nutrient Agar,"25 ppm, sonicated 0 mins.",+++ (heavy contamination(>10^5 cfu/ml))
same,bacterial colonies on Nutrient Agar,"25 ppm, sonicated 5 mins.",++ (moderate contamination(10^3-10^5 cfu/ml))
same,bacterial colonies on Nutrient Agar,"25 ppm, sonicated 10 mins.",−
same,bacterial colonies on Nutrient Agar,"25 ppm, sonicated 15 mins.",−
same,bacterial colonies on Nutrient Agar,"25 ppm, sonicated 20 mins.",−
same,bacterial colonies on Nutrient Agar,"25 ppm, sonicated 25 mins.",−
same,bacterial colonies on Nutrient Agar,"25 ppm, sonicated 30 mins.",−
same,"further bacterial growth, samples of Table 1","50 ppm, Time 1 (days) after sonication",−
same,"further bacterial growth, samples of Table 1","50 ppm, Time 2 (days) after sonication",−
same,"further bacterial growth, samples of Table 1","50 ppm, Time 3 (days) after sonication",−
same,"further bacterial growth, samples of Table 1","50 ppm, Time 7 (days) after sonication",−
same,"further bacterial growth, samples of Table 1","50 ppm, Time 14 (days) after sonication",−
same,"further bacterial growth, samples of Table 1","50 ppm, Time 28 (days) after sonication",−
same,"further bacterial growth, samples of Table 1","50 ppm, Time 90 (days) after sonication",−
same,bacterial colonies on Nutrient Agar,"50 ppm, sonicated 0 mins.",+++ (heavy contamination(>10^5 cfu/ml))
same,bacterial colonies on Nutrient Agar,"50 ppm, sonicated 5 mins.",++ (moderate contamination(10^3-10^5 cfu/ml))
same,bacterial colonies on Nutrient Agar,"50 ppm, sonicated 10 mins.",−
same,bacterial colonies on Nutrient Agar,"50 ppm, sonicated 15 mins.",++ (moderate contamination(10^3-10^5 cfu/ml))
same,bacterial colonies on Nutrient Agar,"50 ppm, sonicated 20 mins.",−
same,bacterial colonies on Nutrient Agar,"50 ppm, sonicated 25 mins.",−
same,bacterial colonies on Nutrient Agar,"50 ppm, sonicated 30 mins.",−
same,"further bacterial growth, samples of Table 1","75 ppm, Time 1 (days) after sonication",−
same,"further bacterial growth, samples of Table 1","75 ppm, Time 2 (days) after sonication",−
same,"further bacterial growth, samples of Table 1","75 ppm, Time 3 (days) after sonication",−
same,"further bacterial growth, samples of Table 1","75 ppm, Time 7 (days) after sonication",−
same,"further bacterial growth, samples of Table 1","75 ppm, Time 14 (days) after sonication",−
same,"further bacterial growth, samples of Table 1","75 ppm, Time 28 (days) after sonication",−
same,"further bacterial growth, samples of Table 1","75 ppm, Time 90 (days) after sonication",−
same,bacterial colonies on Nutrient Agar,"75 ppm, sonicated 0 mins.",+++ (heavy contamination(>10^5 cfu/ml))
same,bacterial colonies on Nutrient Agar,"75 ppm, sonicated 5 mins.",−
same,bacterial colonies on Nutrient Agar,"75 ppm, sonicated 10 mins.",−
same,bacterial colonies on Nutrient Agar,"75 ppm, sonicated 15 mins.",−
same,bacterial colonies on Nutrient Agar,"75 ppm, sonicated 20 mins.",−
same,bacterial colonies on Nutrient Agar,"75 ppm, sonicated 25 mins.",−
same,bacterial colonies on Nutrient Agar,"75 ppm, sonicated 30 mins.",−
same,"further bacterial growth, samples of Table 1","100 ppm, Time 1 (days) after sonication",−
same,"further bacterial growth, samples of Table 1","100 ppm, Time 2 (days) after sonication",−
same,"further bacterial growth, samples of Table 1","100 ppm, Time 3 (days) after sonication",−
same,"further bacterial growth, samples of Table 1","100 ppm, Time 7 (days) after sonication",−
same,"further bacterial growth, samples of Table 1","100 ppm, Time 14 (days) after sonication",−
same,"further bacterial growth, samples of Table 1","100 ppm, Time 28 (days) after sonication",−
same,"further bacterial growth, samples of Table 1","100 ppm, Time 90 (days) after sonication",−
